Test results from patent EP0235773A1, “Improved pesticide formulations” (Shell Agrar GmbH & Co. KG, priority 1986, dated 1987).
Counter-ions that a name gives are not always drawn.

Legend:
[1] = cited from earlier work
[2] = Approximate solubility of solutes in butyrolactone (BLO); type: physicochemical; conditions: solvent BLO; approximately 25-30°C
Experimental: In formulating the solutions of chlorflurenol and solvent, it was necessary to agitate the solution in order to dissolve the chlorflurenol in the BLO, M-Pyrol, or BLO/M-PYROL.
From tests conducted, the following approximate solubilities at temperatures of approximately 25-30°C. were determined.
Technical dicamba acid - 86.9% acid equivalent Technical sodium salt of dicamba acid - 76% acid equivalent Technical chlorflurenol methyl ester - 95-98% total methal esters

Compound | water solubility [1] [grams/100 grams water] | Solubility for acid Equivalent Concentration [2]
COC(=O)C1(O)c2ccccc2-c2ccc(Cl)cc21 (stereo not drawn) [Technical chlorflurenol methy ester, chlorflurenol methyl ester] | 0.0018 | approximately 25%
COc1c(Cl)ccc(Cl)c1C(=O)O [Technical sodium salt of dicamba] |  | Less than 1%
